The source made the active and inactive calls. The calls are words filed in the database; no cut-off is given here.
Assays:
[1] = tested on: Trypanosoma cruzi; assay: Antitrypanosomal activity against Trypanosoma cruzi MHOM/Pe/2011/Arequipa DTU 5 trypomastigotes infected in Balb/c mouse assessed as reduction in parasitaemia level at 20 mg/kg, po once daily for 5 consecutive days starting from day 10 post infection measured on day 40 post infection by Neubauer chamber method; format: functional, organism-based
[2] = Cardiotoxicity in Balb/c mouse infected with Trypanosoma cruzi MHOM/Pe/2011/Arequipa DTU 5 trypomastigotes assessed as decrease in serum LDH level at 20 mg/kg, po once daily for 5 consecutive days starting from day 75 post infection measured on day 81 post infection relative to control; format: toxicity, organism-based; settings: in vivo
[3] = Hepatotoxicity in Balb/c mouse infected with Trypanosoma cruzi MHOM/Pe/2011/Arequipa DTU 5 trypomastigotes assessed as increase in ratio of serum AST to GOT level at 20 mg/kg, po once daily for 5 consecutive days starting from day 10 post infection measured on day 127 post infection by biochemical analysis relative to control; format: toxicity, organism-based; settings: in vivo
[4] = Hepatotoxicity in Balb/c mouse infected with Trypanosoma cruzi MHOM/Pe/2011/Arequipa DTU 5 trypomastigotes assessed as increase in total bilirubin level at 20 mg/kg, po once daily for 5 consecutive days starting from day 10 post infection measured on day 16 post infection relative to control; format: toxicity, organism-based; settings: in vivo
[5] = Hepatotoxicity in Balb/c mouse infected with Trypanosoma cruzi MHOM/Pe/2011/Arequipa DTU 5 trypomastigotes assessed as increase in total bilirubin level at 20 mg/kg, po once daily for 5 consecutive days starting from day 75 post infection measured on day 127 post infection relative to control; format: toxicity, organism-based; settings: in vivo
[6] = Hepatotoxicity in Balb/c mouse infected with Trypanosoma cruzi MHOM/Pe/2011/Arequipa DTU 5 trypomastigotes assessed as increase in alkaline phosphatase level at 20 mg/kg, po once daily for 5 consecutive days starting from day 75 post infection measured on day 81 post infection relative to control; format: toxicity, organism-based; settings: in vivo
[7] = Hepatotoxicity in Balb/c mouse infected with Trypanosoma cruzi MHOM/Pe/2011/Arequipa DTU 5 trypomastigotes assessed as increase in alkaline phosphatase level at 20 mg/kg, po once daily for 5 consecutive days starting from day 75 post infection measured on day 127 post infection relative to control; format: toxicity, organism-based; settings: in vivo
[8] = tested on: Trypanosoma cruzi; assay: Trypanocidal activity against Trypanosoma cruzi MHOM/Pe/2011/Arequipa DTU 5 epimastigotes after 72 hrs by resazurin dye based assay; format: functional, organism-based; settings: MHOM/Pe/2011/Arequipa DTU 5, 72 h
[9] = tested on: Trypanosoma cruzi; assay: Trypanocidal activity against Trypanosoma cruzi MHOM/Pe/2011/Arequipa DTU 5 amastigotes infected in African green monkey Vero cells after 72 hrs by Giemsa-staining based microscopic assay; format: functional, organism-based; settings: MHOM/Pe/2011/Arequipa DTU 5, Vero
[10] = tested on: Trypanosoma cruzi; assay: Trypanocidal activity against Trypanosoma cruzi MHOM/Pe/2011/Arequipa DTU 5 trypomastigotes derived from infected Balb/c mouse after 72 hrs by resazurin dye based assay; format: functional, organism-based; settings: MHOM/Pe/2011/Arequipa DTU 5, 72 h
[11] = tested on: Trypanosoma cruzi; assay: Trypanocidal activity against Trypanosoma cruzi IRHOD/CO/2008/SN3 DTU 1 epimastigotes after 72 hrs by resazurin dye based assay; format: functional, organism-based; settings: IRHOD/CO/2008/SN3 DTU 1, 72 h
[12] = tested on: Trypanosoma cruzi; assay: Trypanocidal activity against Trypanosoma cruzi IRHOD/CO/2008/SN3 DTU 1 amastigotes infected in African green monkey Vero cells after 72 hrs by Giemsa-staining based microscopic assay; format: functional, organism-based; settings: IRHOD/CO/2008/SN3 DTU 1, Vero
[13] = tested on: Trypanosoma cruzi; assay: Trypanocidal activity against Trypanosoma cruzi IRHOD/CO/2008/SN3 DTU 1 trypomastigotes derived from infected Balb/c mouse after 72 hrs by resazurin dye based assay; format: functional, organism-based; settings: IRHOD/CO/2008/SN3 DTU 1, 72 h
[14] = tested on: Trypanosoma cruzi; assay: Trypanocidal activity against Trypanosoma cruzi TINF/CH/1956/Tulahuen DTU 6 epimastigotes after 72 hrs by resazurin dye based assay; format: functional, organism-based; settings: TINF/CH/1956/Tulahuen DTU 6, 72 h
[15] = tested on: Trypanosoma cruzi; assay: Trypanocidal activity against Trypanosoma cruzi TINF/CH/1956/Tulahuen DTU 6 amastigotes infected in African green monkey Vero cells after 72 hrs by Giemsa-staining based microscopic assay; format: functional, organism-based; settings: TINF/CH/1956/Tulahuen DTU 6, Vero
[16] = tested on: Trypanosoma cruzi; assay: Trypanocidal activity against Trypanosoma cruzi TINF/CH/1956/Tulahuen DTU 6 trypomastigotes derived from infected Balb/c mouse after 72 hrs by resazurin dye based assay; format: functional, organism-based; settings: TINF/CH/1956/Tulahuen DTU 6, 72 h
[17] = tested on: Vero; assay: Cytotoxicity against African green monkey Vero cells assessed as reduction in cell viability after 72 hrs by resazurin dye based assay; settings: Chlorocebus sabaeus
[18] = Selectivity index, ratio of IC50 for African green monkey Vero cells to IC50 for Trypanosoma cruzi MHOM/Pe/2011/Arequipa DTU 5 epimastigotes; format: toxicity; settings: read-out: Ratio IC50
[19] = Selectivity index, ratio of IC50 for African green monkey Vero cells to IC50 for Trypanosoma cruzi TINF/CH/1956/Tulahuen DTU 6 epimastigotes; format: toxicity; settings: read-out: Ratio IC50
[20] = tested on: Trypanosoma cruzi; assay: Trypanocidal activity against Trypanosoma cruzi MHOM/Pe/2011/Arequipa DTU 5 amastigotes infected in African green monkey Vero cells assessed as infected cells at 50 uM after 72 hrs by Giemsa-staining based assay; format: functional
[21] = tested on: Trypanosoma cruzi; assay: Antitrypanosomal activity against Trypanosoma cruzi MHOM/Pe/2011/Arequipa DTU 5 epimastigotes assessed as effect on parasite glycolytic pathway by measuring increase in glycerol excretion at IC25 after 72 hrs by 1H NMR method; format: functional
[22] = tested on: Trypanosoma cruzi; assay: Antitrypanosomal activity against Trypanosoma cruzi MHOM/Pe/2011/Arequipa DTU 5 epimastigotes assessed as effect on parasite glycolytic pathway by measuring increase in succinate excretion at IC25 after 72 hrs by 1H NMR method; format: functional, organism-based
[23] = tested on: Trypanosoma cruzi; assay: Antitrypanosomal activity against Trypanosoma cruzi MHOM/Pe/2011/Arequipa DTU 5 epimastigotes assessed as effect on parasite glycolytic pathway by measuring increase in acetate excretion at IC25 after 72 hrs by 1H NMR method; format: functional, organism-based
[24] = tested on: Trypanosoma cruzi; assay: Antitrypanosomal activity against Trypanosoma cruzi MHOM/Pe/2011/Arequipa DTU 5 epimastigotes assessed as effect on parasite glycolytic pathway by measuring increase in pyruvate excretion at IC25 after 72 hrs by 1H NMR method; format: functional, organism-based
[25] = Inhibition of Trypanosoma cruzi MHOM/Pe/2011/Arequipa DTU 5 epimastigotes Fe-SOD by UV-Visible spectrophotometric method
[26] = tested on: Trypanosoma cruzi; assay: Antitrypanosomal activity against Trypanosoma cruzi MHOM/Pe/2011/Arequipa DTU 5 epimastigotes assessed as effect on parasite glycolytic pathway by measuring increase in L-alanine excretion at IC25 after 72 hrs by 1H NMR method; format: functional, organism-based
[27] = tested on: Trypanosoma cruzi; assay: Antitrypanosomal activity against Trypanosoma cruzi MHOM/Pe/2011/Arequipa DTU 5 epimastigotes assessed as effect on parasite glycolytic pathway by measuring increase in D-lactate excretion at IC25 after 72 hrs by 1H NMR method; format: functional, organism-based
[28] = tested on: Trypanosoma cruzi; assay: Antitrypanosomal activity against Trypanosoma cruzi MHOM/Pe/2011/Arequipa DTU 5 epimastigotes assessed as effect on parasite glycolytic pathway by measuring decrease in acetate excretion at IC25 after 72 hrs by 1H NMR method; format: functional, organism-based
[29] = tested on: Trypanosoma cruzi; assay: Antitrypanosomal activity against Trypanosoma cruzi MHOM/Pe/2011/Arequipa DTU 5 epimastigotes assessed as effect on parasite glycolytic pathway by measuring decrease in L-alanine excretion at IC25 after 72 hrs by 1H NMR method; format: functional, organism-based
[30] = tested on: Trypanosoma cruzi; assay: Antitrypanosomal activity against Trypanosoma cruzi MHOM/Pe/2011/Arequipa DTU 5 epimastigotes assessed as effect on parasite glycolytic pathway by measuring decrease in D-lactate excretion at IC25 after 72 hrs by 1H NMR method; format: functional, organism-based
[31] = tested on: Trypanosoma cruzi; assay: Antitrypanosomal activity against Trypanosoma cruzi MHOM/Pe/2011/Arequipa DTU 5 epimastigotes assessed as effect on parasite glycolytic pathway by measuring decrease in ethanol excretion at IC25 after 72 hrs by 1H NMR method; format: functional, organism-based

SMILES	Activity [1]	Activity [3] [U/L]	Activity [5] [%]	Activity [6] [U/L]	IC50 [8] [µM]	IC50 [9] [µM]	IC50 [10] [µM]	IC50 [11] [µM]	IC50 [12] [µM]	IC50 [13] [µM]	IC50 [14] [µM]	IC50 [15] [µM]	IC50 [16] [µM]	IC50 [17] [µM]	selectivity ratio [18]	selectivity ratio [19]	Activity [21]	Activity [22]	IC50 [25] [µM]	further results
O=C(Cn1ccnc1[N+](=O)[O-])NCc1ccccc1 [BENZNIDAZOLE]	Active	> 40	20	> 40	–	–	–	–	–	–	–	–	–	–	–	–	–	–	–	Activity [2]: 20 to 30 U/L; Activity [4]: 20 to 30 mg/dL; Activity [7]: 20 to 30 U/L
CCCCCCCCCCCCCCCCNc1c(N(C)CCCN(C)C)c(=O)c1=O	Active	–	10	10 to 20	7.3	0.2	4.4	16	18.9	5.4	9.5	6.4	4.7	679	93.1	71.1	43%	Active	69.8	Activity [20]: 0; Activity [23]: Active; Activity [24]: Active; Activity [26]: Active; Activity [27]: Active
CCCCCCNc1c(N(C)CCCN(C)C)c(=O)c1=O	–	20 to 30	–	–	20.3	17.3	6.5	14.3	50	15.8	14.7	38.3	17.2	900	44.3	61.3	Active	Active	25.3	Activity [28]: Active; Activity [29]: Active; Activity [30]: Active; Activity [31]: Active
